Measured values taken from US20190185471A1, “SOLID FORMS OF VENETOCLAX AND PROCESSES FOR THE PREPARATION OF VENETOCLAX” (DR. REDDY'S LABORATORIES LIMITED, priority 2016, published 2019).

Tests used:
[1] = stability of the solid form under mechanical stress (grinding and milling); format: physicochemical
Excerpt: (§1) The present application provides a stable amorphous form of Venetoclax devoid of the problems indicated in the prior art and suitable for powder handling and downstream processes.

[2] = stability of the solid form under hygroscopic conditions (higher relative humidity); format: physicochemical; conditions: higher relative humidity conditions of more than 60% RH
Excerpt: as §1

[3] = stability of the crystalline form over time; format: physicochemical
Procedure: In an embodiment, drying crystalline Form RT2 of Venetoclax may be carried out at temperatures and times sufficient to achieve desired quality of product. Drying may be carried out at about 30° C. or above at which crystalline form RT2 is stable and for any time period required for obtaining a desired quality, such as from about 5 minutes to 10 hours or longer. Crystalline form RT2 is stable for 3 months period or longer.

[4] = test system: tumor cells that overexpress BCL-2; conditions: nonclinical studies; cited from earlier work

## CC1(C)CCC(CN2CCN(c3ccc(C(=O)NS(=O)(=O)c4ccc(NCC5CCOCC5)c([N+](=O)[O-])c4)c(Oc4cnc5[nH]ccc5c4)c3)CC2)=C(c2ccc(Cl)cc2)C1 [Amorphous form of Venetoclax]
[1]
  stability under mechanical stress: highly stable
[2]
  stability under hygroscopic conditions: stable

## CC1(C)CCC(CN2CCN(c3ccc(C(=O)NS(=O)(=O)c4ccc(NCC5CCOCC5)c([N+](=O)[O-])c4)c(Oc4cnc5[nH]ccc5c4)c3)CC2)=C(c2ccc(Cl)cc2)C1 [Crystalline form RT2]
[3]
  period for which the crystalline form is stable: ≥ 3 months

## CC1(C)CCC(CN2CCN(c3ccc(C(=O)NS(=O)(=O)c4ccc(NCC5CCOCC5)c([N+](=O)[O-])c4)c(Oc4cnc5[nH]ccc5c4)c3)CC2)=C(c2ccc(Cl)cc2)C1 [Venetoclax]
[4]
  cytotoxic activity: demonstrated cytotoxic activity
